Results from patent publication US4889917A, “Peptide” (Agency of Industrial Science Technology, Ministry of …, priority 1987, dated 1989).

Tested on: human antibody to the nicotinic acetylcholine receptor
Experiment: Adsorption of human anti-nicotinic acetylcholine receptor antibody from myasthenia gravis patient serum; residual antibody in supernatant by Con A method (toxin binding inhibition)
Protocol: In 0.5 ml of serum from a patient of myasthenia gravis, 50 mg of the adsorbent obtained in Referential Example 3(a) (cellulose particles having the peptide immobilized thereon) and not yet subjected to any heat treatment or the adsorbent obtained in Referential Example 3(b) and subjected to a heat treatment was suspended at a temperature of 37° C. for three hours. The resultant suspension was centrifuged to separate a supernatant. The supernatant was tested for the concentration of the human antibody to the nicotinic acetylcholine receptor by the Con A method [Protein, Nucleic Acid and Enzyme, vol. […] To be specific, the specimen was brought into contact sequentially with the nicotinic acetylcholine receptor and a radioisotope-labelled α-bungartoxin. The treated specimen was passed through a column packed with Sepharose having immobilized thereon concanavalin (Con A). By measuring the radioactivity of the column, the amount of the human antibody which was contained in the specimen and which inhibited the union of the α-bungarotoxin with the nicotinic acetylcholine receptor was determined in terms of toxin binding inhibition activity (ratio of decrease of the radioactivity of the column).

## NCC(=O)O [Glycine, glycine]
As E1, adsorbent heat treated at 121° C. for 20 minutes
  Toxine binding inhibition activity: 45%
Supernatant of 0.5 ml myasthenia gravis serum after 50 mg adsorbent (substance immobilized on cellulose particles), 37° C., three hours, no heat treatment, lower = more antibody adsorbed
  Toxine binding inhibition activity: 44%
